Patent US12447119B2, “Oral care composition” (SUNSTAR AMERICAS, INC., priority 2019, dated 2025)

Experiment: Solubility of surfactant in an oral care composition (statement in Experiment 4)
Assay type: physicochemical
Conditions: compared with a monoglyceride and diglyceride mixture
Description: The results of Experiment 4 are shown in FIG. 5 (represented by Table 6 below), which measures the toothpaste concentration that causes 50% cell hemolysis. […] Glyceryl monostearate is harder to dissolve in an oral care composition than monoglyceride and digylceride mixtures.

Question: Which “solubility of the surfactant in an oral care composition” value does the source give for CCCCCCCCCCCCCCCCCC(=O)OCC(O)CO (stereo not shown) [Glyceryl monostearate, glyceryl monostearate] here?
Answer: less soluble than a monoglyceride and diglyceride mixture
